Laboratory results published in patent publication US8461328B2, “Tricyclic heterocyclic compounds, compositions and methods of use thereof” (Genentech, Inc., priority 2010, dated 2013).

How the values were obtained:
Format in all cases: biochemical
[1] = molecular target: T1, JAK1 (Homo sapiens, UniProt P23458); experiment: JAK1 inhibition (Table 4); settings: read-out: JAK1 Ki
T1 construct: made in house; host or cells: SF9 insect cells (baculovirus)

[2] = molecular target: T2, JAK2 (Homo sapiens, UniProt O60674); experiment: JAK2 inhibition (Table 4); settings: read-out: JAK2 Ki
T2 construct: made in house; host or cells: SF9 insect cells (baculovirus)
T2 sequence (O60674 812-1132): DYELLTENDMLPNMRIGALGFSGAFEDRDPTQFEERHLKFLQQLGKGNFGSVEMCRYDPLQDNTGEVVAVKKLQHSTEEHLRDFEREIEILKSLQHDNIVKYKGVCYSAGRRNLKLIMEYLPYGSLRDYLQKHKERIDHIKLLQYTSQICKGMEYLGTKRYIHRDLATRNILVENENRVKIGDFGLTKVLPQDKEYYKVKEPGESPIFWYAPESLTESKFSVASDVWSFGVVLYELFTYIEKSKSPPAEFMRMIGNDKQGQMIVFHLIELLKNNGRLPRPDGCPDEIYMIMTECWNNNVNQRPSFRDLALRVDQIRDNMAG

[3] = molecular target: T3, JAK3 (Homo sapiens, UniProt P52333); experiment: JAK3 inhibition (Table 4); settings: read-out: JAK3 Ki
T3 construct: made in house; host or cells: SF9 insect cells (baculovirus)
T3 sequence (P52333 783-1124): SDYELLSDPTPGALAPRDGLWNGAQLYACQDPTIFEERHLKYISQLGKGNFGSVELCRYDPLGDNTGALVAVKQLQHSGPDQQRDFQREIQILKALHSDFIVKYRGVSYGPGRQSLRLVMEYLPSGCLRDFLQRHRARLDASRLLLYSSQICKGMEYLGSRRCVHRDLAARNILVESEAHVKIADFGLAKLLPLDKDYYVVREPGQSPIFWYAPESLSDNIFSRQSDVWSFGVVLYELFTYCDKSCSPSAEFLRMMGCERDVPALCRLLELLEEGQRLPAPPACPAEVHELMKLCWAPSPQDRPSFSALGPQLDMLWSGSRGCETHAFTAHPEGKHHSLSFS

[4] = molecular target: T4, TYK2 (Homo sapiens, UniProt P29597); experiment: TYK2 inhibition (Table 4)
T4 construct: made in house; host or cells: SF9 insect cells (baculovirus)
T4 sequence (P29597 873-1187): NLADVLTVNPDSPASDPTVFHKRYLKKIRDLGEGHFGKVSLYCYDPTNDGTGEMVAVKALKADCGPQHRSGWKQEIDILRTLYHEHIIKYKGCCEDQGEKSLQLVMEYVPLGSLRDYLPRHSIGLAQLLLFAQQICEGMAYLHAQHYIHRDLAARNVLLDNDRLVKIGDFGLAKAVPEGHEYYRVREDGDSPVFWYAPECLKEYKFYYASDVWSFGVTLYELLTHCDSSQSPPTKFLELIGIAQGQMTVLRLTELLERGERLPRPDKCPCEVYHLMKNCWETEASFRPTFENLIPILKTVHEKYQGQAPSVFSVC

T1 sequence (P23458 852-1154): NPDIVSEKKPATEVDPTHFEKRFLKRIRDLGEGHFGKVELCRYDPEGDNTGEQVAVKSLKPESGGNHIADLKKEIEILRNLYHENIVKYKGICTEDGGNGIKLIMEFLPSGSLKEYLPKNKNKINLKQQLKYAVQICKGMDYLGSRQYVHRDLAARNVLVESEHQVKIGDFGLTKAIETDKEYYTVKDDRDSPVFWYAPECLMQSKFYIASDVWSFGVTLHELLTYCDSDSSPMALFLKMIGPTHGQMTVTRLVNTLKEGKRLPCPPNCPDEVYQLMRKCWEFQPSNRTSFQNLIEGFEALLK

Structure (SMILES)	Ki [1]	Ki [2]	Ki [3]	Ki [4]
C[C@@H](O)c1nc2cnc3[nH]ccc3c2n1[C@H]1COCCC1(F)F [Example 1011, (R)-1-[1-((S)-4,4-Difluoro-tetrahydro-pyran-3-yl)-1,6-dihydro-1,3,5,6-tetraaza-as-indacen-2-yl]-ethanol]	18 nM	133 nM	79.3 nM	81.7 nM
CCN1CC[C@@H](n2c(CCNS(=O)(=O)CC)nc3cnc4[nH]ccc4c32)[C@@H](F)C1 [Example 681, Ethanesulfonic acid {2-[1-((3S,4R)-1-ethyl-3-fluoro-piperidin-4-yl)-1,6-dihydro-1,2,3,5,6-tetraaza-as-indacen-2-yl]-ethyl}-amide]	4.21 nM	32.6 nM	133 nM	290 nM
CC1CNCCC1n1cnc2cnc3[nH]ccc3c21 (racemic) [Example 312, 1-(3-Methyl-piperidin-4-yl)-1,6-dihydro-1,3,5,6-tetraaza-as-indacene]	47.6 nM	415 nM	626 nM	1050 nM
CC(=O)NCCc1nc2cnc3[nH]ccc3c2n1C1CCCCC1 [Example 677, N-[2-(1-Cyclohexyl-1,6-dihydro-1,2,3,5,6-tetraaza-as-indacen-2-yl)-ethyl]-acetamide]	2.47 nM	29.5 nM	32.9 nM	27.5 nM
Cc1nc2cnc3[nH]ccc3c2n1[C@@H]1C[C@@H]2CC[C@H]1O2 (relative stereo) [Example 684, Endo-2-Methyl-1-(7-oxa-bicyclo[2.2.1]hept-2-yl)-1,6-dihydro-1,2,3,5,6-tetraaza-as-indacene]	7.57 nM	21.6 nM	11.5 nM	37.8 nM
N#CCCN1CCC(n2c(CNC(=O)c3cccnc3)nc3cnc4[nH]ccc4c32)CC1 [Example 494, N-{1-[1-(2-Cyano-ethyl)-piperidin-4-yl]-1,6-dihydro-1,3,5,6-tetraaza-as-indacen-2-ylmethyl}-nicotinamide]	4.73 nM	23.5 nM	18.6 nM	61.2 nM
CCN1CCC(n2cnc3cnc4[nH]ccc4c32)C(F)(F)C1 (racemic) [Example 532, 1-(1-Ethyl-3,3-difluoro-piperidin-4-yl)-1,6-dihydro-1,3,5,6-tetraaza-as-indacene]	2.86 nM	6 nM	30.4 nM	23.8 nM
O=S(=O)(Cc1ccccc1)N1CC[C@@H](n2cnc3cnc4[nH]ccc4c32)C1 [Example 435, 1-((R)-1-Phenylmethanesulfonyl-pyrrolidin-3-yl)-1,6-dihydro-1,3,5,6-tetraaza-as-indacene]	32.1 nM	28.1 nM	226 nM	265 nM
O=S(=O)(c1ccccc1)N1CCC[C@@H](n2cnc3cnc4[nH]ccc4c32)C1 [Example 359, 1-((R)-1-Benzenesulfonyl-piperidin-3-yl)-1,6-dihydro-1,3,5,6-tetraaza-as-indacene]	12.4 nM	10.5 nM	67.1 nM	52.8 nM
CC(=O)NCCc1nc2cnc3[nH]ccc3c2n1C1CCN(CCC#N)CC1 [Example 379, N-(2-{1-[1-(2-Cyano-ethyl)-piperidin-4-yl]-1,6-dihydro-1,3,5,6-tetraaza-as-indacen-2-yl}-ethyl)-acetamide]	3.54 nM	18 nM	26.2 nM	117 nM
CC(C)(C)OC(=O)N1CCC[C@H]1C(=O)N1CCC(n2cnc3cnc4[nH]ccc4c32)CC1 [Example 144, (S)-2-[4-(6H-1,2,3,5,6-Tetraaza-as-indacen-1-yl)-piperidine-1-carbonyl]-pyrrolidine-1-carboxylic acid tert-butyl ester]	251 nM	382 nM	3520 nM	3160 nM
C[C@]1(O)CC[C@@H](n2nnc3cnc4[nH]ccc4c32)CC1 [Example 714, Cis-1-Methyl-4-(6H-1,2,3,5,6-pentaaza-as-indacen-1-yl)-cyclohexanol]	5.29 nM	9.89 nM	105 nM	28.6 nM
